Assay results published in publication PMC6508583 (Journal of the American Chemical Society, 2019).
Converted amounts (≈) assume the structure as drawn. Where two headings read alike, the source gives them in different places.

Assays:
E. coli = experiment: Antibacterial activity against reference strains: E. coli; details: Escherichia coli
E coli = experiment: Neutropenic mouse thigh infection model; assay type: in vivo; details: dose 3 mg.kg^−1
MRSA = experiment: Antibacterial activity against reference strains: MRSA; assay type: cell-based; details: Staphylococcus aureus, MRSA, read-out: Antibacterial activity (MIC) MRSA AG038
[1] = tested on: E. coli carrying specific resistance determinants; experiment: Activity against wild-type and engineered E. coli carrying specific AMEs or RMTs; assay type: cell-based; details: Escherichia coli
[2] = tested on: A1555G mutant mitochondrial hybrid ribosome; assay type: biochemical, human
[3] = tested on: wild-type bacterial ribosome; experiment: Cell-free translation assay, wild-type bacterial ribosome; assay type: biochemical; details: in vitro translation inhibition
[4] = tested on: Mit13 hybrid ribosome (decoding A site of the human mitochondrial ribosome); assay type: biochemical
[5] = tested on: Cyt14 hybrid ribosome (decoding A site of the human cytoplasmic ribosome); assay type: biochemical
E. cloacae = experiment: Antibacterial activity against reference strains: E. cloacae; assay type: cell-based; details: Enterobacter cloacae, read-out: Antibacterial activity (MIC) E. cloacae AG290

With `CN[C@@H]1[C@@H](O)[C@@H](O[C@@H]2[C@@H](O)[C@H](O[C@H]3OC(CNCCO)=CC[C@H]3N)[C@@H](N)C[C@H]2NC(=O)[C@@H](O)CCN)OC[C@]1(C)O` [Plazomicin, reference compound] the MIC (E. coli; read-out: Antibacterial activity (MIC) E. coli AG001) was 2 µg/mL (≈ 3.37 µM), the MIC (E. coli; read-out: Antibacterial activity (MIC) E. coli AG003) was 2 to 4 µg/mL (≈ 3.37 to 6.75 µM) and the “log reduction in colony-forming units (CFUs) compared to vehicle” value (E coli) was “similar”. For the same compound, the MIC (MRSA) was 2 µg/mL (≈ 3.37 µM), the MIC ([1]; read-out: Activity (MIC) E. coli AG006) was 0.5 to 1 µg/mL (≈ 0.844 to 1.69 µM) and the MIC ([1]; read-out: Activity (MIC) E. coli AG007) was 2 µg/mL (≈ 3.37 µM). For the same compound, the MIC ([1]; read-out: Activity (MIC) E. coli AG008) was 0.5 to 1 µg/mL (≈ 0.844 to 1.69 µM), the MIC ([1]; read-out: Activity (MIC) E. coli AG009) was 2 µg/mL (≈ 3.37 µM) and the MIC ([1]; read-out: Activity (MIC) E. coli AG036) was 1 µg/mL (≈ 1.69 µM). The MIC ([1]; read-out: Activity (MIC) E. coli AG103) was > 128 µg/mL, the MIC ([1]; read-out: Activity (MIC) E. coli AG105) was 1 to 2 µg/mL (≈ 1.69 to 3.37 µM) and the MIC ([1]; read-out: Activity (MIC) E. coli AG166) was 1 µg/mL (≈ 1.69 µM). The “Selectivity A1555G” value ([2]; A1555G over wt bacterial ribosome) was 47, the “IC50 A1555G” value ([2]; in vitro translation inhibition, A1555G mutant mitochondrial hybrid ribosome) was 2.8 µg/mL (≈ 4.72 µM) and the IC50 wt [3] was 0.06 µg/mL (≈ 0.101 µM). For the same compound, the “Selectivity Mit 13” value ([4]; Mit13 over wt bacterial ribosome) was 833, the “IC50 Mit13” value ([4]; in vitro translation inhibition, Mit13 hybrid ribosome) was 50 µg/mL (≈ 84.4 µM) and the “Selectivity Cyt14” value ([5]; Cyt14 over wt bacterial ribosome) was 6983. The “IC50 Cyt 14” value ([5]; in vitro translation inhibition, Cyt14 hybrid ribosome) was 419 µg/mL (≈ 707 µM) and the MIC (E. cloacae) was 0.5 µg/mL (≈ 0.844 µM).
